In EP3636781A1, “NOVEL SCREENING ASSAYS FOR IDENTIFYING COMPOUNDS RESERSING HIV-1 LATENCY” (Heinrich-Pette-Institut Leibniz-Institut für Experimentelle …, priority 2018, dated 2020):
pEC50: −log10 of the molar value.

What was measured:
J89 = assay: SM111 treatment of latent J89 cells, latency reversal as HIV-1-GFP+ cells; format: cell-based; conditions: 100 µM, several consecutive passages, HIV-1-GFP+ cells by flow cytometry (Figure 7A)
Method: All results were depicted as medians ± IQR. […].
For SM111 treatment, the HIV-1 latent Jurkat cell line, J89, was treated with SM111 compound, a Vpu-inhibitor, SM113, a negative compound, and DMSO for several consecutive passages. 1x10^6 cells were plated and treated with 100 µM of all compounds for 4 days. Then, one fourth (25%) of the cells were passaged into new media containing the respective treatment and the rest were used to measure HIV-1 latency reactivation (GFP) and cell viability. An untreated control well was kept as internal negative control.

J89Δvpu cells [1] = assay: cells; conditions: 96 h, read-out: EC50 for HIV-1 latency re-establishment
Method: (§1) Latency reactivation was traced by quantifying the proportion of HIV-1-GFP+ cells. […] The treatment of J89Δvpu cells with increasing concentrations of sulfasalazine was measured at 96 hrs. Cells shown are gated on viable cells (Zombie NIR- gate) and on negative activated caspase 3 to exclude any apoptotic or dead cell. […] (B) NF-κB inhibitor, sulfasalazine, was added at several concentrations to the J89Cas9AVpu cell line and the proportion of GFP- cells (latent) was measured by flow cytometry at 96 hrs. (gating strategy: (A): FSC/SSC → Zombie NIR- → HIV-1-GFP. (B) FSC/SSC → Zombie NIR negative → Caspase 3 active negative → HIV-1-GFP).

J89Δvpu cells [2] = conditions: 96 hrs, proportion of Zombie NIR-/activated Caspase 3- cells against concentration
Method: as §1

NF-κB (human) = NF-κB (human) (UniProt Q04206); assay: cell-based or functional assay
Chain of NF-κB (human) (Q04206 whole entry): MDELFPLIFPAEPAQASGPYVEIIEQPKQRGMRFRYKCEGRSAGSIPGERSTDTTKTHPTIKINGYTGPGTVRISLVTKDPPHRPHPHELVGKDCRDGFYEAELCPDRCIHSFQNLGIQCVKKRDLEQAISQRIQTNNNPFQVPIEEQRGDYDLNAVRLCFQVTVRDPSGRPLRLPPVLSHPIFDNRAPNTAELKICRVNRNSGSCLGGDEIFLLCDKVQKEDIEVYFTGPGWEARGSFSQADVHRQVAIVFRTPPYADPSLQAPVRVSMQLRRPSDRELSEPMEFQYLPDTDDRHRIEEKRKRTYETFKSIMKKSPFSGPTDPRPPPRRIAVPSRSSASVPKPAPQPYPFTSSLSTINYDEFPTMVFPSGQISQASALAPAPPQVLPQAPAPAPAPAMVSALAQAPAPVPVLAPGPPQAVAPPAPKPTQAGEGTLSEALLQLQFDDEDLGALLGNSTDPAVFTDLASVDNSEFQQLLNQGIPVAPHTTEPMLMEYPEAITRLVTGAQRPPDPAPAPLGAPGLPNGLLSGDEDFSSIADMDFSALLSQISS

N=C(N)NC(=O)c1cccnc1N1CCCCCC1 [SM111, 1-(2-(azepan-1-yl)nicotinoyl)guanidine]
reversal of HIV-1 latency (J89): able to reverse HIV-1 latency

O=C(O)c1cc(/N=N/c2ccc(S(=O)(=O)Nc3ccccn3)cc2)ccc1O [sulfasalazine]
pEC50 (J89Δvpu cells [1]): 3.40
LD50 (J89Δvpu cells [2]): > 0.50 mM

HIV-1 89.6 Vpu R45K mutant
activation of NF-κB in a dual luciferase reporter assay (HEK293T, constitutively active IKKβ, increasing amounts of Vpu expression plasmid), EC50 (NF-κB (human)): > 38 ng

HIV-1 Vpu protein (strain 89.6), wild type
activation of NF-κB in a dual luciferase reporter assay (HEK293T, constitutively active IKKβ, increasing amounts of Vpu expression plasmid), EC50 (NF-κB (human)): 5.2 ng
